According to patent US20220023269A1, “Methods Of Treating Diabetes In Severe Insulin-Resistant Diabetic Subjects” (Balticgruppen Bio AB, priority 2018, published 2022):

Key:
AMPK in HeLa cells = experiment: AMPK activation assay in HeLa cells (LKB1 null); assay type: cell-based, human; conditions: LKB1 null cells; 2.5, 5 or 10 μM, 4 hours
Protocol: All cell lines were lysed in 0.1 M Tris-HCl, pH 6.8, 2% SDS, 10 mM sodium fluoride (SIGMA #S7920), 10 mM β-glycerophosphate (SIGMA #G6376), and 1 mM sodium vanadate (SIGMA #72060) and supernatant collected after 1 minute at 14,000 rpm. Islets (human and mouse) were lysed in 0.1 M Tris-HCl, pH 6.8, 2% SDS, protease inhibitor (Roche #04 693 124 001) and phosphatase inhibitor (Roche #04 906 837 001). Right calf muscle, heart, iWAT, and interscapular BAT was crushed in a pestle using liquid nitrogen and homogenised in ice cold RIPA buffer (150 mM sodium chloride (SIGMA #S7653), 1.0% NP40 (USB), 0.5% sodium deoxycholate (SIGMA #D6750), 0.1% SDS, 50 mM Tris pH 8.0, 20 mM sodium pyrophosphate (SIGMA #71515), 10 mM sodium fluoride, 10 mM β-glycerolphosphate, 1 mM sodium vanadate and protease inhibitor cocktail (Roche #04693124001), 1 tablet/10 ml lysis buffer). The supernatant was collected after 2 min at 14,000 rpm. This procedure was repeated until all fat was eliminated and the supernatant was clear, at 4° C. Samples were analysed on 4-15% polyacrylamide gels. Values were normalised toward AMPKα, β-Actin, GAPDH or the respective non-phosphorylated counterpart.
Table 3 contains origin of cell lines, growth conditions and settings for activation of AMPK via the test material. […]

CBA mice on HFD = experiment: Indirect calorimetry measurements; assay type: in vivo; conditions: 11 w
Protocol: VO2 and VCO2 rates were measured during 3 days by indirect calorimetry in TSE PhenoMaster Calorimetry metabolic cages (TSE Systems GmbH). The respiratory exchange ratio (RER) was calculated as a ratio of VCO2 produced/VO2 consumed. […] Energy expenditure (EE) was calculated as the product of the calorific value (CV) of oxygen [=3.815+(1.232×RER)] and the volume of O2 consumed, i.e. [EE=CV×VO2 (kcal/h)] and related to lean weight.

[1] = system: diet-induced obese C57BL/6J mice; experiment: Combination therapy AMPK activator + SGLT2 inhibitor in DIO mice; assay type: in vivo; conditions: 2 weeks oral gavage, Compound 1 75 mg/kg, canagliflozin 10 mg/kg
Protocol: Male C57BL/6J mice, 8 weeks of age were purchased from Jackson, Charles River Laboratories, Inc. (Germany). All animals were housed in the Umeå University animal facility (Umeå Centre for Comparative Biology; UCCB) with a 12:12 hour light-dark cycle (lights on at 6 a.m.) and a constant temperature of 21° C. The animals were ear marked with a unique identification number, and groups of 5 mice were housed in transparent polycarbonate cages that comply with the requirements of the Code of Practice for the housing and care of animals used in scientific procedures. Wood chips were used as bedding material and environmental enrichment was provided. Animals were allowed to acclimate for 15 weeks to their new environment before the onset of the study. The animals were allowed ad libitum access to tap water throughout the accommodation and study period. During the acclimation period, the animals were allowed a standard pelleted diet (CRM (E) Rodent, Special Diets Services, Scanbur BK, Sweden). At the start of the study, the standard diet was changed to a very high fat diet (vHFD; Cat. No. D12492, Research Diets, Inc.) and this diet was kept throughout the whole study period. All of the procedures were approved by the Local Ethics Review Committee on Animal Experiments, Umeå Region.
23 Weeks old male C57BL/6J mice were fed HFD to promote diet-induced obesity (DIO) and administered once daily by oral gavage; vehicle (phosphate buffer pH 7.3, 2% w/v methyl cellulose; n=11), canagliflozin 10 mg/kg (n=14), Compound 1 at 75 mg/kg (n=14) and the combination of canagliflozin 10 mg/kg and Compound 1 at […] (n=15). After 2 weeks of treatment, fasted (6 hour) blood glucose and plasma insulin levels (determined in tail vein blood samples) were analysed. Food intake and weight were monitored throughout the study.
Blood samples were collected from the tail vein in Potassium-EDTA vials and plasma was separated by centrifugation and stored at −20° C. until assayed. Plasma insulin was determined with mouse insulin ELISA (Ultra Sensitive Mouse insulin ELISA Kit). Glucose concentrations were analysed in tail vein blood using a OneTouch® Ultra®2 Blood Glucose Meter (LifeScan, Inc).
Results shown in the figures are expressed as means±standard error of the mean (S.E.M.) for the number of animals per group. Statistical significance between the control group and the three treatment groups were analysed by Student's t-test, with P<0.05 considered statistically significant.

[2] = 0.8 mg/g in HFD, light and dark periods

Structure (SMILES): O=C(Nc1nc(=O)n(Cc2ccc(Cl)cc2)s1)c1ccc(Cl)cc1 [test material, 4-chloro-N-[2-[(4-chlorophenyl)methyl]-3-oxo-1,2,4-thiadiazol-5-yl]benzamide]
- basal levels of pAMPK and pACC (AMPK in HeLa cells): failed to increase
- energy expenditure (EE) (CBA mice on HFD; [2]): significantly increased
- oxygen consumption (VO2) (CBA mice on HFD; [2]): significantly increased
- respiratory exchange ratio (RER) (CBA mice on HFD; 0.8 mg/g, day 2 light period, all 3 days dark period): significantly decreased
- HOMA-IR [1]: statistically significant (***) reduction
- fasted plasma insulin ([1]; 6 hour fast): statistically significant (***) reduction
